Test results as given in patent US11272709B2, “Amidine substituted benzoyl derivatives useful as herbicides” (Syngenta Participations AG, priority 2018, dated 2022).

Tests used:
Format in all cases: in vivo
Settings in all cases: evaluated after 13 days
[1] = tested on: Amaranthus retoflexus (AMARE); assay: Pre-emergence herbicidal glasshouse test, Amaranthus retoflexus (AMARE)
Experimental: (§1) Seeds of a variety of test species are sown in standard soil in pots (Lolium perenne (LOLPE), Amaranthus retoflexus (AMARE), Abutilon theophrasti (ABUTH), Setaria faberi (SETFA), Echinochloa crus-galli (ECHCG), Ipomoea hederacea (IPOHE)). After cultivation for one day (pre-emergence) or after 8 days cultivation (post-emergence) under controlled conditions in a glasshouse (at 24/16° C., day/night; 14 hours light; 65% humidity), the plants are sprayed with an aqueous spray solution derived from the formulation of the technical active ingredient in acetone/water (50:50) solution containing 0.5% Tween 20 (polyoxyethelyene sorbitan monolaurate, CAS RN 9005-64-5). Compounds are applied at 500 g/h unless otherwise indicated. The test plants are then grown in a glasshouse under controlled conditions in a glasshouse (at 24/16° C., day/night; 14 hours light; 65% humidity) and watered twice daily. After 13 days for pre and post-emergence, the test is evaluated for the percentage damage caused to the plant. The biological activities are shown in the following table on a five point scale (5=80-100%; 4=60-79%; 3=40-59%; 2=20-39%; 1=0-19%).

[2] = tested on: Abutilon theophrasti (ABUTH); assay: Pre-emergence herbicidal glasshouse test, Abutilon theophrasti (ABUTH)
Experimental: as §1

[3] = tested on: Setaria faberi (SETFA); assay: Pre-emergence herbicidal glasshouse test, Setaria faberi (SETFA)
Experimental: as §1

[4] = tested on: Echinochloa crus-galli (ECHCG); assay: Pre-emergence herbicidal glasshouse test, Echinochloa crus-galli (ECHCG)
Experimental: as §1

[5] = tested on: Ipomoea hederacea (IPOHE); assay: Pre-emergence herbicidal glasshouse test, Ipomoea hederacea (IPOHE)
Experimental: as §1

[6] = tested on: Amaranthus retoflexus (AMARE); assay: Post-emergence herbicidal glasshouse test, Amaranthus retoflexus (AMARE)
Experimental: as §1

[7] = tested on: Abutilon theophrasti (ABUTH); assay: Post-emergence herbicidal glasshouse test, Abutilon theophrasti (ABUTH)
Experimental: as §1

[8] = tested on: Setaria faberi (SETFA); assay: Post-emergence herbicidal glasshouse test, Setaria faberi (SETFA)
Experimental: as §1

[9] = tested on: Echinochloa crus-galli (ECHCG); assay: Post-emergence herbicidal glasshouse test, Echinochloa crus-galli (ECHCG)
Experimental: as §1

[10] = tested on: Ipomoea hederacea (IPOHE); assay: Post-emergence herbicidal glasshouse test, Ipomoea hederacea (IPOHE)
Experimental: as §1

SMILES: Cc1nnc(NC(=O)c2ccc(S(C)(=O)=O)c(N=CN(C)C)c2C)o1 [Compound 2.025]
- PRE Application AMARE, percentage damage (five point scale) ([1]; 500 g/h): 5 (5=80-100%)
- PRE Application ABUTH, percentage damage (five point scale) ([2]; 500 g/h): 5 (5=80-100%)
- PRE Application SETFA, percentage damage (five point scale) ([3]; 500 g/h): 5 (5=80-100%)
- PRE Application ECHCG, percentage damage (five point scale) ([4]; 500 g/h): 5 (5=80-100%)
- PRE Application IPOHE, percentage damage (five point scale) ([5]; 500 g/h): 3 (3=40-59%)
- POST Application AMARE, percentage damage (five point scale) ([6]; 500 g/h): 5 (5=80-100%)
- POST Application ABUTH, percentage damage (five point scale) ([7]; 500 g/h): 5 (5=80-100%)
- POST Application SETFA, percentage damage (five point scale) ([8]; 500 g/h): 5 (5=80-100%)
- POST Application ECHCG, percentage damage (five point scale) ([9]; 500 g/h): 5 (5=80-100%)
- POST Application IPOHE, percentage damage (five point scale) ([10]; 500 g/h): 5 (5=80-100%)

SMILES: CN(C=Nc1c(C(F)(F)F)ccc(C(=O)Nc2nnnn2C)c1Cl)c1ccccc1 [Compound 1.131]
- PRE Application AMARE, percentage damage (five point scale) ([1]; 500 g/h): 5 (5=80-100%)
- PRE Application ABUTH, percentage damage (five point scale) ([2]; 500 g/h): 5 (5=80-100%)
- PRE Application SETFA, percentage damage (five point scale) ([3]; 500 g/h): 5 (5=80-100%)
- PRE Application ECHCG, percentage damage (five point scale) ([4]; 500 g/h): 5 (5=80-100%)
- PRE Application IPOHE, percentage damage (five point scale) ([5]; 500 g/h): 5 (5=80-100%)
- POST Application AMARE, percentage damage (five point scale) ([6]; 500 g/h): 5 (5=80-100%)
- POST Application ABUTH, percentage damage (five point scale) ([7]; 500 g/h): 5 (5=80-100%)
- POST Application SETFA, percentage damage (five point scale) ([8]; 500 g/h): 5 (5=80-100%)
- POST Application ECHCG, percentage damage (five point scale) ([9]; 500 g/h): 5 (5=80-100%)
- POST Application IPOHE, percentage damage (five point scale) ([10]; 500 g/h): 5 (5=80-100%)

SMILES: Cc1c(C(=O)Nc2nnnn2C)ccc(S(C)(=O)=O)c1N=CN(C)C(C)C [Compound 1.144]
- PRE Application AMARE, percentage damage (five point scale) ([1]; 500 g/h): 5 (5=80-100%)
- PRE Application ABUTH, percentage damage (five point scale) ([2]; 500 g/h): 5 (5=80-100%)
- PRE Application SETFA, percentage damage (five point scale) ([3]; 500 g/h): 5 (5=80-100%)
- PRE Application ECHCG, percentage damage (five point scale) ([4]; 500 g/h): 5 (5=80-100%)
- PRE Application IPOHE, percentage damage (five point scale) ([5]; 500 g/h): 5 (5=80-100%)
- POST Application AMARE, percentage damage (five point scale) ([6]; 500 g/h): 5 (5=80-100%)
- POST Application ABUTH, percentage damage (five point scale) ([7]; 500 g/h): 5 (5=80-100%)
- POST Application SETFA, percentage damage (five point scale) ([8]; 500 g/h): 5 (5=80-100%)
- POST Application ECHCG, percentage damage (five point scale) ([9]; 500 g/h): 5 (5=80-100%)
- POST Application IPOHE, percentage damage (five point scale) ([10]; 500 g/h): 5 (5=80-100%)

SMILES: Cc1nnc(NC(=O)c2ccc(S(C)(=O)=O)c(N=CN(C)CC(F)(F)F)c2Cl)o1 [Compound 2.142]
- PRE Application AMARE, percentage damage (five point scale) ([1]; applied at 250 g/ha): 5 (5=80-100%)
- PRE Application ABUTH, percentage damage (five point scale) ([2]; applied at 250 g/ha): 3 (3=40-59%)
- PRE Application SETFA, percentage damage (five point scale) ([3]; applied at 250 g/ha): 5 (5=80-100%)
- PRE Application ECHCG, percentage damage (five point scale) ([4]; applied at 250 g/ha): 5 (5=80-100%)
- PRE Application IPOHE, percentage damage (five point scale) ([5]; applied at 250 g/ha): 1 (1=0-19%)
- POST Application AMARE, percentage damage (five point scale) ([6]; applied at 250 g/ha): 5 (5=80-100%)
- POST Application ABUTH, percentage damage (five point scale) ([7]; applied at 250 g/ha): 5 (5=80-100%)
- POST Application SETFA, percentage damage (five point scale) ([8]; applied at 250 g/ha): 5 (5=80-100%)
- POST Application ECHCG, percentage damage (five point scale) ([9]; applied at 250 g/ha): 5 (5=80-100%)
- POST Application IPOHE, percentage damage (five point scale) ([10]; applied at 250 g/ha): 5 (5=80-100%)

SMILES: CC(=NOCc1c(S(C)(=O)=O)ccc(C(=O)Nc2nnnn2C)c1Cl)N(C)C [Compound 1.129]
- PRE Application AMARE, percentage damage (five point scale) ([1]; 500 g/h): 5 (5=80-100%)
- PRE Application ABUTH, percentage damage (five point scale) ([2]; 500 g/h): 5 (5=80-100%)
- PRE Application SETFA, percentage damage (five point scale) ([3]; 500 g/h): 5 (5=80-100%)
- PRE Application ECHCG, percentage damage (five point scale) ([4]; 500 g/h): 5 (5=80-100%)
- PRE Application IPOHE, percentage damage (five point scale) ([5]; 500 g/h): 5 (5=80-100%)
- POST Application AMARE, percentage damage (five point scale) ([6]; 500 g/h): 5 (5=80-100%)
- POST Application ABUTH, percentage damage (five point scale) ([7]; 500 g/h): 5 (5=80-100%)
- POST Application SETFA, percentage damage (five point scale) ([8]; 500 g/h): 5 (5=80-100%)
- POST Application ECHCG, percentage damage (five point scale) ([9]; 500 g/h): 5 (5=80-100%)
- POST Application IPOHE, percentage damage (five point scale) ([10]; 500 g/h): 5 (5=80-100%)

SMILES: Cc1c(C(=O)Nc2nnnn2C)ccc(S(C)(=O)=O)c1/N=C/N(C)C [Compound 1.025, 3-[(E)-dimethylaminomethyleneamino]-2-methyl-4-methylsulfonyl-N-(1-methyltetrazol-5-yl)benzamide]
- PRE Application AMARE, percentage damage (five point scale) ([1]; 500 g/h): 5 (5=80-100%)
- PRE Application ABUTH, percentage damage (five point scale) ([2]; 500 g/h): 5 (5=80-100%)
- PRE Application SETFA, percentage damage (five point scale) ([3]; 500 g/h): 5 (5=80-100%)
- PRE Application ECHCG, percentage damage (five point scale) ([4]; 500 g/h): 5 (5=80-100%)
- PRE Application IPOHE, percentage damage (five point scale) ([5]; 500 g/h): 5 (5=80-100%)
- POST Application AMARE, percentage damage (five point scale) ([6]; 500 g/h): 5 (5=80-100%)
- POST Application ABUTH, percentage damage (five point scale) ([7]; 500 g/h): 5 (5=80-100%)
- POST Application SETFA, percentage damage (five point scale) ([8]; 500 g/h): 5 (5=80-100%)
- POST Application ECHCG, percentage damage (five point scale) ([9]; 500 g/h): 5 (5=80-100%)
- POST Application IPOHE, percentage damage (five point scale) ([10]; 500 g/h): 5 (5=80-100%)
